Like-named read-outs stand apart in the source and are kept apart here. Positions of bridges follow the written chain, without caps; N, C: chain ends. Non-standard residues stand in square brackets, D forms with d. Residues, ends and D or L forms follow the SMILES beside them. Nva = CCC[C@H](N)C(=O)O; Sar = CNCC(=O)O
Legend:
hNav1.5 = hNav1.5 (Homo sapiens, UniProt Q14524); assay: cell-based
hNav1.7 = hNav1.7 (Homo sapiens, UniProt Q15858); assay: cell-based
Sequence of hNav1.7 (Q15858 whole entry, looked up): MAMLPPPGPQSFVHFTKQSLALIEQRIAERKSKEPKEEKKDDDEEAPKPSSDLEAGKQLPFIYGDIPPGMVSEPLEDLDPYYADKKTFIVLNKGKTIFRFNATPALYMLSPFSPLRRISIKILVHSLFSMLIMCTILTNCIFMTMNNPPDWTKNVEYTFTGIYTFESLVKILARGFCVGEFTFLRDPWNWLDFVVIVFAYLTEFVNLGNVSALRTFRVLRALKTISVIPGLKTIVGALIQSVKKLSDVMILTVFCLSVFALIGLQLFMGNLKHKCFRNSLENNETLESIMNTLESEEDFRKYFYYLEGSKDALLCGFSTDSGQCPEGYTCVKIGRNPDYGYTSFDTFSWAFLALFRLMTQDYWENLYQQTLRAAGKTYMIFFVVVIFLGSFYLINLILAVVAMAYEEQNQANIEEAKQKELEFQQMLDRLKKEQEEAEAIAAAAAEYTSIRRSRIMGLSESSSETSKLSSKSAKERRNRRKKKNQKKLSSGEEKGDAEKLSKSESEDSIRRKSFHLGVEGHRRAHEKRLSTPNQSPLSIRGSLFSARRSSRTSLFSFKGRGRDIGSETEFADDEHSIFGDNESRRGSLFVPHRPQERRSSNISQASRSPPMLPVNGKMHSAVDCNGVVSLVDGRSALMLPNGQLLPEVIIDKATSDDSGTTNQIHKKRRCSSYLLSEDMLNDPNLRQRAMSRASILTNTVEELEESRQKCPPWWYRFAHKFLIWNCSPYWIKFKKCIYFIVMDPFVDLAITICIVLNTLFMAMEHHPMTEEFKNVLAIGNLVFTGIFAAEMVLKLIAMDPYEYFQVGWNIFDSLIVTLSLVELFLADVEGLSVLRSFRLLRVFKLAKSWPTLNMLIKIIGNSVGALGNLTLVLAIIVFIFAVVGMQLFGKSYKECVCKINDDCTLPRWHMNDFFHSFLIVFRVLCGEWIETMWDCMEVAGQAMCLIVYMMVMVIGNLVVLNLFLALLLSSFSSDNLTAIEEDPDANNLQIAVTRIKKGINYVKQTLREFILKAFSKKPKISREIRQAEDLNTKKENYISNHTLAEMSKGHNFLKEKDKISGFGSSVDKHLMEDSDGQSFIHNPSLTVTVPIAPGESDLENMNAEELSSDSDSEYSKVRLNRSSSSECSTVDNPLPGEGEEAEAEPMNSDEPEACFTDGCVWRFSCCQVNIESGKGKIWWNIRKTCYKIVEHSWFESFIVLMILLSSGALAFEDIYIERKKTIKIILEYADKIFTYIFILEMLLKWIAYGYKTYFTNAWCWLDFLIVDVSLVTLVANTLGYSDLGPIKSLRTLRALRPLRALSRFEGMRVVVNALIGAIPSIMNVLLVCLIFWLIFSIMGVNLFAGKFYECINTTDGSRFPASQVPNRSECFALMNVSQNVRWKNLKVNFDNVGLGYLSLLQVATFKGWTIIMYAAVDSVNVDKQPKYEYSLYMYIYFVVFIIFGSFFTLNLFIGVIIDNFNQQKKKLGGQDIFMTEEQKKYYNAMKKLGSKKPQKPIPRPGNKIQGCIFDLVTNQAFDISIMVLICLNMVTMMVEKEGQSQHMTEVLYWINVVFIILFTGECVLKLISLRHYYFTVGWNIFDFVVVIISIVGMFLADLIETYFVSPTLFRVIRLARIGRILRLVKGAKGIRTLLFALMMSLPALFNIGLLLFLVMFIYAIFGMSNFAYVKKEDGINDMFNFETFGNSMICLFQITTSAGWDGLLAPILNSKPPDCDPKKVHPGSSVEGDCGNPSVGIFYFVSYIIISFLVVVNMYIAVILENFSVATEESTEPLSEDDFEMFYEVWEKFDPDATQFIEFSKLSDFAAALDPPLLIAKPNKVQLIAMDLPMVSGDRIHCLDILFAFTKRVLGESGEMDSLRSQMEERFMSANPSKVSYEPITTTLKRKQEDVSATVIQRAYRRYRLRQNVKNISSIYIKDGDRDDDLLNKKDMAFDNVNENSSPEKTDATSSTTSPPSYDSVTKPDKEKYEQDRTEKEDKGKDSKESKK

Sequence of hNav1.5 (Q14524 whole entry, looked up): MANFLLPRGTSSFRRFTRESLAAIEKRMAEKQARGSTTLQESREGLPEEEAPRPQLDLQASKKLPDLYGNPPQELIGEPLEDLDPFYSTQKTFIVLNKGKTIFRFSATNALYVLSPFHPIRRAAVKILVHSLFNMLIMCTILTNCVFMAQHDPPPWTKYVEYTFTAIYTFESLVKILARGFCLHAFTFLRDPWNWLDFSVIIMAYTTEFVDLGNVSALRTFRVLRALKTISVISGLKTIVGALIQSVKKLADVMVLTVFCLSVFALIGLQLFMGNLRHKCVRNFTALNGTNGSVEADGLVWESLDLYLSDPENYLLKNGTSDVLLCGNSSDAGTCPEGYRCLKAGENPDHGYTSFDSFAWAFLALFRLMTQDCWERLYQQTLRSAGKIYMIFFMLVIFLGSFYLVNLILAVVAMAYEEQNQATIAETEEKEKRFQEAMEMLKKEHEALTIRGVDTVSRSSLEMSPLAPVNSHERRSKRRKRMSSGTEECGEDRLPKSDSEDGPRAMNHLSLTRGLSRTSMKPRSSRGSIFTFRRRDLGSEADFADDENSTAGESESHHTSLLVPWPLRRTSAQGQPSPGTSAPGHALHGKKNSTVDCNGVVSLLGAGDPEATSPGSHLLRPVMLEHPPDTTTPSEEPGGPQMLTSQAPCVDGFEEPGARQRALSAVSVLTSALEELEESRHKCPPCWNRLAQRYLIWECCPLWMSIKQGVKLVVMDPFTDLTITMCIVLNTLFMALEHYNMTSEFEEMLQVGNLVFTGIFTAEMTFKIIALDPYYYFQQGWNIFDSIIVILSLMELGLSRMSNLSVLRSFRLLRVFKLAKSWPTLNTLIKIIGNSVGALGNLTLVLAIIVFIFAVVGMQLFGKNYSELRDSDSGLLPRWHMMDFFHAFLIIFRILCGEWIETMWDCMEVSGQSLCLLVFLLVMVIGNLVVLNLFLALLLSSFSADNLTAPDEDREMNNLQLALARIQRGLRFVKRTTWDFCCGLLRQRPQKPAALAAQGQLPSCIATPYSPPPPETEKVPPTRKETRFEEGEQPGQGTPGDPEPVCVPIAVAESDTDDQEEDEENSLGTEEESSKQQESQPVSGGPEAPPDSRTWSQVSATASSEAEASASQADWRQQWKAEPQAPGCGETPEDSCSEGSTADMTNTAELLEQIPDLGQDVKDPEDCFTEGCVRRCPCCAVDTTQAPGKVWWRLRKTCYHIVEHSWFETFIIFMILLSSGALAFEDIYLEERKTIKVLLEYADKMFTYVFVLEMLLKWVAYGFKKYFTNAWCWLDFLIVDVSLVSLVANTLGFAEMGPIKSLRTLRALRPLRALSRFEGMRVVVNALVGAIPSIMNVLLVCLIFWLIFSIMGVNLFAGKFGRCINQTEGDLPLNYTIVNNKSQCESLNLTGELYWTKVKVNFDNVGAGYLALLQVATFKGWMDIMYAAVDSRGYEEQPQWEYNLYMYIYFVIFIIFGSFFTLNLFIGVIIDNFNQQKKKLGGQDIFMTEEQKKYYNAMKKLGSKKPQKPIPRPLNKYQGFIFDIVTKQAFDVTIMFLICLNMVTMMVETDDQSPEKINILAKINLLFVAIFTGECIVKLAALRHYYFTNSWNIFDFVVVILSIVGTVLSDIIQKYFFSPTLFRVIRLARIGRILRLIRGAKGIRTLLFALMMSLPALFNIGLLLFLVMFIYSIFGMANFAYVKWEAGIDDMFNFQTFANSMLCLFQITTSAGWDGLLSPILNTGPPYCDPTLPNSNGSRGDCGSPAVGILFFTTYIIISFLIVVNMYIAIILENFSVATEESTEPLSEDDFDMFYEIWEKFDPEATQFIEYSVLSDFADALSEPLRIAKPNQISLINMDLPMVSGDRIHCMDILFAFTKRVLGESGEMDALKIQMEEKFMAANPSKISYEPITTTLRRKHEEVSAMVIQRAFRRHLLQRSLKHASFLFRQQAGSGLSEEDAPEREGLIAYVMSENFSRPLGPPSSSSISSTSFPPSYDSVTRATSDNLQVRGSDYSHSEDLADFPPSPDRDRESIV

CC[C@H](C)[C@@H]1NC(=O)[C@@H]2CSSC[C@@H]3NC(=O)[C@H](C(C)C)NC(=O)[C@H](CC(C)C)NC(=O)[C@H](CC(N)=O)NC(=O)[C@@H]4CCCN4C(=O)[C@H](CCCNC(=N)N)NC(=O)[C@H](CSSC[C@H](NC(=O)[C@@H](N)CC(=O)O)C(=O)N[C@@H](CC(C)C)C(=O)NCC(=O)N(C)[C@@H](C(C)C)C(=O)N[C@@H](CC(C)C)C(=O)N[C@@H](CCCNC(=N)N)C(=O)N[C@@H](CCCCN)C(=O)N2)NC(=O)[C@H](CSSC[C@@H](C(=O)N[C@@H](CCCCN)C(=O)N[C@@H](Cc2ccc(O)cc2)C(=O)N[C@H](C(=O)N[C@@H](Cc2ccccc2)C(N)=O)C(C)C)NC(=O)[C@H](Cc2c[nH]c4ccccc24)NC(=O)[C@H](CCCCN)NC(=O)[C@H](Cc2c[nH]cn2)NC(=O)[C@H]([C@@H](C)O)NC(=O)[C@H](CCCNC(=N)N)NC(=O)[C@H](CO)NC3=O)NC(=O)[C@H](CCCCN)NC(=O)[C@H](CC(=O)O)NC(=O)[C@H](CC(N)=O)NC(=O)[C@H](CC(=O)O)NC(=O)[C@@H]2CCCN2C1=O [[NMeVal5;Leu6]GpTx-1(1-34)]
IC50 (hNav1.5): > 10 µM
IC50 (hNav1.7; Nav1.7 Use IC50): 50 nM

CCC[C@@H]1NC(=O)CNC(=O)[C@H](CC(C)C)NC(=O)[C@@H](NC(=O)[C@@H](N)CC(=O)O)CSSC[C@@H]2NC(=O)[C@@H]3CSSC[C@@H](C(=O)N[C@@H](CCCCN)C(=O)N[C@@H](Cc4ccc(O)cc4)C(=O)N[C@H](C(=O)N[C@@H](Cc4ccccc4)C(N)=O)C(C)C)NC(=O)[C@H](Cc4c[nH]c5ccccc45)NC(=O)[C@H](CCC(=O)O)NC(=O)[C@H](Cc4c[nH]cn4)NC(=O)[C@H]([C@@H](C)O)NC(=O)[C@H](CCCNC(=N)N)NC(=O)[C@H](CO)NC(=O)[C@H](CSSC[C@H](NC(=O)[C@H](CCCCN)NC(=O)[C@H](CCCNC(=N)N)NC(=O)[C@H](CCSC)NC1=O)C(=O)N[C@@H]([C@@H](C)CC)C(=O)N1CCC[C@H]1C(=O)N[C@@H](CC(=O)O)C(=O)N[C@@H](CC(N)=O)C(=O)N[C@@H](CC(=O)O)C(=O)N[C@@H](CCCCN)C(=O)N3)NC(=O)[C@H](C(C)C)NC(=O)[C@H](CC(C)C)NC(=O)[C@H](CC(N)=O)NC(=O)[C@@H]1CCCN1C(=O)[C@H](CCCNC(=N)N)NC2=O [[Nva5;Glu28]GpTx-1(1-34)] (H-DCLG[Nva]MRKCIPDNDKCCRPNLVCSRTHEWCKYVF-NH2; disulfide 2-17, 9-23, 16-30)
IC50 (hNav1.5): > 10 µM
IC50 (hNav1.7; Nav1.7 Use IC50): 56 nM

CCC[C@@H]1NC(=O)CNC(=O)[C@H](CC(C)C)NC(=O)[C@@H](NC(=O)[C@@H](N)CC(=O)O)CSSC[C@@H]2NC(=O)[C@@H]3CSSC[C@@H](C(=O)N[C@@H](CCCCN)C(=O)N[C@@H](Cc4ccc(O)cc4)C(=O)N[C@H](C(=O)N[C@@H](Cc4ccccc4)C(N)=O)C(C)C)NC(=O)[C@H](Cc4c[nH]c5ccccc45)NC(=O)[C@H](CCC(=O)O)NC(=O)[C@H](Cc4c[nH]cn4)NC(=O)[C@H]([C@@H](C)O)NC(=O)[C@H](CCCNC(=N)N)NC(=O)[C@H](CO)NC(=O)[C@H](CSSC[C@H](NC(=O)[C@H](CCCCN)NC(=O)[C@H](CCCNC(=N)N)NC(=O)[C@H](CC(C)C)NC1=O)C(=O)N[C@@H]([C@@H](C)CC)C(=O)N1CCC[C@H]1C(=O)N[C@@H](CC(=O)O)C(=O)N[C@@H](CC(N)=O)C(=O)N[C@@H](CC(=O)O)C(=O)N[C@@H](CCCCN)C(=O)N3)NC(=O)[C@H](C(C)C)NC(=O)[C@H](CC(C)C)NC(=O)[C@H](CC(N)=O)NC(=O)[C@@H]1CCCN1C(=O)[C@H](CCCNC(=N)N)NC2=O [[Nva5;Leu6;Glu28]GpTx-1(1-34)] (H-DCLG[Nva]LRKCIPDNDKCCRPNLVCSRTHEWCKYVF-NH2; disulfide 2-17, 9-23, 16-30)
IC50 (hNav1.5): > 10 µM
IC50 (hNav1.7; Nav1.7 Use IC50): 42 nM

CCC[C@@H]1NC(=O)CNC(=O)[C@H](CC(C)C)NC(=O)[C@@H](NC(=O)[C@@H](N)CC(=O)O)CSSC[C@@H]2NC(=O)[C@@H]3CSSC[C@@H](C(=O)N[C@@H](CCCCN)C(=O)N[C@@H](Cc4ccc(O)cc4)C(=O)N[C@H](C(=O)N[C@@H](Cc4ccccc4)C(N)=O)C(C)C)NC(=O)[C@H](Cc4c[nH]c5ccccc45)NC(=O)[C@H](CCCCN)NC(=O)[C@H](Cc4c[nH]cn4)NC(=O)[C@H]([C@@H](C)O)NC(=O)[C@H](CCCNC(=N)N)NC(=O)[C@H](CO)NC(=O)[C@H](CSSC[C@H](NC(=O)[C@H](CCCCN)NC(=O)[C@H](CCCNC(=N)N)NC(=O)[C@H](CC(C)C)NC1=O)C(=O)N[C@@H]([C@@H](C)CC)C(=O)N1CCC[C@H]1C(=O)N[C@@H](CC(=O)O)C(=O)N[C@@H](CC(N)=O)C(=O)N[C@@H](CC(=O)O)C(=O)N[C@@H](CCCCN)C(=O)N3)NC(=O)[C@H](C(C)C)NC(=O)[C@H](CC(C)C)NC(=O)[C@H](CC(N)=O)NC(=O)[C@@H]1CCCN1C(=O)[C@H](CCCNC(=N)N)NC2=O [[Nva5;Leu6]GpTx-1(1-34)]
IC50 (hNav1.5): > 10 µM
IC50 (hNav1.7; Nav1.7 Use IC50): 83 nM

CC[C@H](C)[C@@H]1NC(=O)[C@@H]2CSSC[C@@H]3NC(=O)[C@H](C(C)C)NC(=O)[C@H](CC(C)C)NC(=O)[C@H](CC(N)=O)NC(=O)[C@@H]4CCCN4C(=O)[C@H](CCCNC(=NC)NC)NC(=O)[C@H](CSSC[C@H](NC(=O)[C@@H](N)CC(=O)O)C(=O)N[C@@H](CC(C)C)C(=O)NCC(=O)N[C@@H](Cc4ccccc4)C(=O)N[C@@H](CCSC)C(=O)N[C@@H](CCCNC(=N)N)C(=O)N[C@@H](CCCCN)C(=O)N2)NC(=O)[C@H](CSSC[C@@H](C(=O)N[C@@H](CCCCN)C(=O)N[C@@H](Cc2ccc(O)cc2)C(=O)N[C@H](C(=O)N[C@@H](Cc2ccccc2)C(N)=O)C(C)C)NC(=O)[C@H](Cc2c[nH]c4ccccc24)NC(=O)[C@H](CCCCN)NC(=O)[C@H](Cc2c[nH]cn2)NC(=O)[C@H]([C@@H](C)O)NC(=O)[C@H](CCCNC(=N)N)NC(=O)[C@H](CO)NC3=O)NC(=O)[C@H](CCCCN)NC(=O)[C@H](CC(=O)O)NC(=O)[C@H](CC(N)=O)NC(=O)[C@H](CC(=O)O)NC(=O)[C@@H]2CCCN2C1=O [[SDMA18]GpTx-1(1-34)]
IC50 (hNav1.5): 10 µM
IC50 (hNav1.7; read-out: Nav1.7 Use IC50): 6 nM

CC[C@H](C)[C@@H]1NC(=O)[C@@H]2CSSC[C@@H]3NC(=O)[C@H](C(C)C)NC(=O)[C@H](CC(C)C)NC(=O)[C@H](CC(N)=O)NC(=O)[C@@H]4CCCN4C(=O)[C@H](CCCNC(=N)N)NC(=O)[C@H](CSSC[C@H](NC(=O)[C@@H](N)CC(=O)O)C(=O)N[C@@H](CC(C)C)C(=O)NCC(=O)N(C)CC(=O)N[C@@H](Cc4ccccc4)C(=O)N[C@@H](CCCNC(=N)N)C(=O)N[C@@H](CCCCN)C(=O)N2)NC(=O)[C@H](CSSC[C@@H](C(=O)N[C@@H](CCCCN)C(=O)N[C@@H](Cc2ccc(O)cc2)C(=O)N[C@H](C(=O)N[C@@H](Cc2ccccc2)C(N)=O)C(C)C)NC(=O)[C@H](Cc2c[nH]c4ccccc24)NC(=O)[C@H](CCCCN)NC(=O)[C@H](Cc2c[nH]cn2)NC(=O)[C@H]([C@@H](C)O)NC(=O)[C@H](CCCNC(=N)N)NC(=O)[C@H](CO)NC3=O)NC(=O)[C@H](CCCCN)NC(=O)[C@H](CC(=O)O)NC(=O)[C@H](CC(N)=O)NC(=O)[C@H](CC(=O)O)NC(=O)[C@@H]2CCCN2C1=O [[Sar5;Phe6]GpTx-1(1-34)] (H-DCLG[Sar]FRKCIPDNDKCCRPNLVCSRTHKWCKYVF-NH2; disulfide 2-17, 9-23, 16-30)
IC50 (hNav1.5): > 10 µM
IC50 (hNav1.7; Nav1.7 Use IC50): 25 nM

CC[C@H](C)[C@@H]1NC(=O)[C@@H]2CSSC[C@@H]3NC(=O)[C@H](C(C)C)NC(=O)[C@H](CC(C)C)NC(=O)[C@H](CC(N)=O)NC(=O)[C@@H]4CCCN4C(=O)[C@H](CCCNC(=N)N)NC(=O)[C@H](CSSC[C@H](NC(=O)[C@@H](N)CC(=O)O)C(=O)N[C@@H](CC(C)C)C(=O)NCC(=O)N[C@@H](CO)C(=O)N[C@@H](Cc4ccccc4)C(=O)N[C@@H](CCCNC(=N)N)C(=O)N[C@@H](CCCCN)C(=O)N2)NC(=O)[C@H](CSSC[C@@H](C(=O)N[C@@H](CCCCN)C(=O)N[C@@H](Cc2ccc(O)cc2)C(=O)N[C@H](C(=O)N[C@@H](Cc2ccccc2)C(N)=O)C(C)C)NC(=O)[C@H](Cc2c[nH]c4ccccc24)NC(=O)[C@H](CCCCN)NC(=O)[C@H](Cc2c[nH]cn2)NC(=O)[C@H]([C@@H](C)O)NC(=O)[C@H](CCCNC(=N)N)NC(=O)[C@H](CO)NC3=O)NC(=O)[C@H](CCCCN)NC(=O)[C@H](CC(=O)O)NC(=O)[C@H](CC(N)=O)NC(=O)[C@H](CC(=O)O)NC(=O)[C@@H]2CCCN2C1=O [[Ser5;Phe6]GpTx-1(1-34)] (H-DCLGSFRKCIPDNDKCCRPNLVCSRTHKWCKYVF-NH2; disulfide 2-17, 9-23, 16-30)
IC50 (hNav1.5): > 10 µM
IC50 (hNav1.7; Nav1.7 Use IC50): 24 nM

CC[C@H](C)[C@@H]1NC(=O)[C@@H]2CSSC[C@@H]3NC(=O)[C@H](C(C)C)NC(=O)[C@H](CC(C)C)NC(=O)[C@H](CC(N)=O)NC(=O)[C@@H]4CCCN4C(=O)[C@H](CCCNC(=N)N)NC(=O)[C@H](CSSC[C@H](NC(=O)[C@@H](N)CC(=O)O)C(=O)N[C@@H](CC(C)C)C(=O)NCC(=O)N[C@@H](C(C)(C)C)C(=O)N[C@@H](CC(C)C)C(=O)N[C@@H](CCCNC(=N)N)C(=O)N[C@@H](CCCCN)C(=O)N2)NC(=O)[C@H](CSSC[C@@H](C(=O)N[C@@H](CCCCN)C(=O)N[C@@H](Cc2ccc(O)cc2)C(=O)N[C@H](C(=O)N[C@@H](Cc2ccccc2)C(N)=O)C(C)C)NC(=O)[C@H](Cc2c[nH]c4ccccc24)NC(=O)[C@H](CCCCN)NC(=O)[C@H](Cc2c[nH]cn2)NC(=O)[C@H]([C@@H](C)O)NC(=O)[C@H](CCCNC(=N)N)NC(=O)[C@H](CO)NC3=O)NC(=O)[C@H](CCCCN)NC(=O)[C@H](CC(=O)O)NC(=O)[C@H](CC(N)=O)NC(=O)[C@H](CC(=O)O)NC(=O)[C@@H]2CCCN2C1=O [[Tle5;Leu6]GpTx-1(1-34)]
IC50 (hNav1.5): > 10 µM
IC50 (hNav1.7; Nav1.7 Use IC50): 17 nM

— patent US9340590B2 (priority 2011, dated 2016)
